# Reference: US9302999B2, “Substituted triazoles as herbicides” (E. I. DU PONT DE NEMOURS AND COMPANY, priority 2012, dated 2016)
# What was measured:
# Assay type in all cases: in vivo
# [1] = tested on: wheat, winter (winter wheat, Triticum aestivum); test: Test D pre-/postemergence: wheat, winter
# Excerpt: (§1) Seeds of plant species selected from bluegrass (annual bluegrass, Poa annua), blackgrass (Alopecurus myosuroides), canarygrass (Phalaris minor), chickweed (common chickweed, Stellaria media), galium (catchweed bedstraw, Galium aparine), bromegrass, downy (downy bromegrass, Bromus tectorum), field poppy (Papaver rhoeas), field violet (Viola arvensis), foxtail, green (green foxtail, Setaria viridis), deadnettle (henbit deadnettle, Lamium amplexicaule), ryegrass, Italian (Italian ryegrass, Lolium multiflorum), kochia (Kochia scoparia), lambsquarters (Chenopodium album), oilseed rape (Brassica napus), pigweed (Amaranthus retroflexus), Russian thistle (Salsola iberica), chamomile (scentless chamomile, Matricaria inodora), speedwell (bird's-eye speedwell, Veronica persica), barley, spring (spring barley, Hordeum vulgare), wheat, spring (spring wheat, Triticum aestivum), buckwheat, wild (wild buckwheat, Polygonum convolvulus), mustard, wild (wild mustard, Sinapis arvensis), oat, wild (wild oat, Avena fatua), radish, wild (wild radish, Raphanus raphanistrum), windgrass (Apera spica-venti), barley, winter (winter barley, Hordeum vulgare), and wheat, winter (winter wheat, Triticum aestivum) were planted into a silt loam soil and treated preemergence with test chemicals formulated in a non-phytotoxic solvent mixture which included a surfactant. At the same time, these same crop and weed species were planted in pots containing the planting medium comprising spaghnum peat moss, vermiculite, wetting agent and starter nutrients and treated with postemergence applications of the test chemicals formulated in the same manner. Plants ranged in height from 2 to 18 cm (1- to 4-leaf stage).
# (§2) Treated plants and controls were maintained in a controlled growth environment for 14 to 21 days after which time all species were compared to controls and visually evaluated. Plant response ratings, summarized in Table D, are based on a scale of 0 to 100 where 0 is no effect and 100 is complete control. A dash (-) response means no test result.
# [2] = tested on: oat, wild (wild oat, Avena fatua); test: Test D pre-/postemergence: oat, wild
# Excerpt: as §1, §2
# [3] = tested on: lambsquarters (Chenopodium album); test: Test D pre-/postemergence: lambsquarters
# Procedure, shortened: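 Species were sown in silt loam and sprayed preemergence, or grown in peat/vermiculite medium and sprayed postemergence at the 1- to 4-leaf stage (2–18 cm), with compounds in a surfactant-containing solvent. Injury was visually rated against untreated controls after 14–21 days, on a 0 (no effect) to 100 (complete control) scale.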
# [4] = tested on: pigweed (Amaranthus retroflexus); test: Test D pre-/postemergence: pigweed
# Excerpt: as §1, §2
# soybean (Glycine max) = test: Test F pre-/postemergence: soybean; conditions: Postemergence, scale 0 to 100
# Excerpt: (§3) Seeds of plant species selected from corn (Zea mays), soybean (Glycine max), velvetleaf (Abutilon theophrasti), lambsquarters (Chenopodium album), poinsettia, wild (wild poinsettia, Euphorbia heterophylla), pigweed, palmer (palmer pigweed, Amaranthus palmeri), waterhemp (common waterhemp, Amaranthus rudis), surinam grass (Brachiaria decumbens), crabgrass, Brazil (Brazilian crabgrass, Digitaria horizontalis), panicum, fall (fall panicum Panicum dichotomiflorum), crabgrass, large (large crabgrass, Digitaria sanguinalis), foxtail, giant (giant foxtail, Setaria faberii), foxtail, green (green foxtail Setaria viridis), goosegrass (Eleusine indica), ragweed (common ragweed, Ambrosia elatior), barnyardgrass (Echinochloa crus-galli), sandbur (southern sandbur, Cenchrus echinatus), arrowleaf sida (Sida rhombifolia), ryegrass, Italian (Italian ryegrass, Lolium multiflorum), dayflower, VA (Virginia (VA) dayflower, Commelina virginica), field bindweed (Convolvulus arvensis), cocklebur (common cocklebur, Xanthium strumarium), morningglory (Ipomoea coccinea), nightshade (eastern black nightshade, Solanum ptycanthum), kochia (Kochia scoparia), nutsedge, yellow (yellow nutsedge, Cyperus esculentus), johnsongrass (Sorghum halepense), smartweed (ladysthumb smartweed, Polygonum persicaria), and beggarticks (hairy beggarticks, Bidens pilosa), were planted into a silt loam soil and treated preemergence with test chemicals formulated in a non-phytotoxic solvent mixture which included a surfactant. At the same time, plants selected from these crop and weed species and also pigweed (Amaranthus retroflexus), waterhemp_RES1 (ALS/Triazine resistant common waterhemp, Amaranthus rudis) and waterhemp_RES2 (ALS/HPPD resistant common waterhemp, Amaranthus rudis) were planted in pots containing a planting medium comprising spaghnum peat moss, vermiculite, wetting agent and starter nutrients treated with postemergence applications of some of the test chemicals formulated in the same manner. Plants ranged in height from 2 to 18 cm for postemergence treatments (1- to 4-leaf stage).
# as §2, with “greenhouse” for “controlled growth environment”, “days,” for “days”, “E,” for “D,”
# [5] = tested on: ryegrass, Italian (Italian ryegrass, Lolium multiflorum); test: Test F pre-/postemergence: ryegrass, Italian; conditions: Postemergence, scale 0 to 100
# Excerpt: as §3
# as §2, with “greenhouse” for “controlled growth environment”, “days,” for “days”, “E,” for “D,”
# [6] = tested on: sandbur (southern sandbur, Cenchrus echinatus); test: Test F pre-/postemergence: sandbur; conditions: Postemergence, scale 0 to 100
# Excerpt: as §3
# as §2, with “greenhouse” for “controlled growth environment”, “days,” for “days”, “E,” for “D,”
# [7] = Postemergence, 31 g ai/ha, scale 0 to 100 (0 no effect, 100 complete control)
# [8] = Postemergence, 62 g ai/ha, scale 0 to 100 (0 no effect, 100 complete control)
# [9] = Postemergence, 125 g ai/ha, scale 0 to 100, 0 no effect, 100 complete control
# [10] = Postemergence, 250 g ai/ha, scale 0 to 100 (0 no effect, 100 complete control)
# [11] = Postemergence, 16 g ai/ha, scale 0 to 100
# [12] = Preemergence, 31 g ai/ha, scale 0 to 100, 0 no effect, 100 complete control
# [13] = Preemergence, 62 g ai/ha, scale 0 to 100
# [14] = Preemergence, 125 g ai/ha, scale 0 to 100
# [15] = Preemergence, 250 g ai/ha, scale 0 to 100
# [16] = Preemergence, 16 g ai/ha, scale 0 to 100, 0 no effect, 100 complete control
SMILES,"Plant response rating: Wheat, Winter [1, 7]","Plant response rating: Wheat, Winter [1, 8]","Plant response rating: Wheat, Winter [1, 9]","Plant response rating: Wheat, Winter [1, 10]","Plant response rating, Wheat, Winter [1, 11]","Plant response rating, Wheat, Winter [1, 12]","Plant response rating, Wheat, Winter [1, 13]","Plant response rating, Wheat, Winter [1, 14]","Plant response rating: Oat, Wild [2, 7]","Plant response rating: Oat, Wild [2, 8]","Plant response rating: Oat, Wild [2, 9]","Plant response rating, Oat, Wild [2, 11]","Plant response rating: Lambsquarters [3, 7]","Plant response rating: Lambsquarters [3, 8]","Plant response rating: Lambsquarters [3, 9]","Plant response rating, Lambsquarters [3, 11]","Plant response rating: Pigweed [4, 7]","Plant response rating: Pigweed [4, 8]","Plant response rating: Pigweed [4, 9]","Plant response rating, Pigweed [4, 11]",further results
Cc1nn(-c2ccc(C(F)(F)F)cn2)nc1Cc1cccc(C(F)(F)F)c1 [Compound 106],5,5,5,5,5,0,0,0,5,5,5,0,30,30,50,20,50,60,90,10,"Plant response rating, Wheat, Winter [1, 15]: 0; Plant response rating: Oat, Wild [2, 10]: 20; Plant response rating, Oat, Wild [2, 12]: 0; Plant response rating, Oat, Wild [2, 13]: 0; Plant response rating, Oat, Wild [2, 14]: 10; Plant response rating, Oat, Wild [2, 15]: 10; Plant response rating: Lambsquarters [3, 10]: 90; Plant response rating, Lambsquarters [3, 12]: 40; Plant response rating, Lambsquarters [3, 13]: 40; Plant response rating, Lambsquarters [3, 14]: 40; Plant response rating, Lambsquarters [3, 15]: 40; Plant response rating: Pigweed [4, 10]: 90; Plant response rating, Pigweed [4, 12]: 0; Plant response rating, Pigweed [4, 13]: 0; Plant response rating, Pigweed [4, 14]: 20; Plant response rating, Pigweed [4, 15]: 40"
Cc1nn(-c2ccc(C(F)(F)F)cc2)nc1Oc1ccnc(C(F)(F)F)c1 [Compound 120],5,10,15,20,5,0,5,5,10,20,35,10,98,100,100,95,90,90,100,0,"Plant response rating, Wheat, Winter [1, 16]: 0; Plant response rating, Wheat, Winter [1, 15]: 10; Plant response rating: Oat, Wild [2, 10]: 70; Plant response rating, Oat, Wild [2, 16]: 0; Plant response rating, Oat, Wild [2, 12]: 5; Plant response rating, Oat, Wild [2, 13]: 25; Plant response rating, Oat, Wild [2, 14]: 55; Plant response rating, Oat, Wild [2, 15]: 100; Plant response rating: Lambsquarters [3, 10]: 100; Plant response rating, Lambsquarters [3, 12]: 80; Plant response rating, Lambsquarters [3, 13]: 90; Plant response rating, Lambsquarters [3, 14]: 100; Plant response rating, Lambsquarters [3, 15]: 100; Plant response rating: Pigweed [4, 10]: 100; Plant response rating, Pigweed [4, 16]: 30; Plant response rating, Pigweed [4, 12]: 100; Plant response rating, Pigweed [4, 13]: 100; Plant response rating, Pigweed [4, 14]: 100; Plant response rating, Pigweed [4, 15]: 100"
COc1nn(-c2ccc(C(F)(F)F)cc2)nc1Cc1ccnc(C(F)F)c1 [Compound 138],20,20,20,25,10,–,–,–,20,30,50,10,80,90,95,70,95,95,100,90,"Plant response rating: Oat, Wild [2, 10]: 75; Plant response rating: Lambsquarters [3, 10]: 100; Plant response rating: Pigweed [4, 10]: 100"
Cc1nn(-c2ccnc(Cl)c2)nc1Cc1ccnc(C(F)(F)F)c1 [Compound 141],–,–,–,–,–,–,–,–,–,–,–,–,–,–,–,–,–,–,–,–,"Plant response rating, Soybean (soybean (Glycine max); 8 g ai/ha): 50; Plant response rating, Soybean (soybean (Glycine max); 16 g ai/ha): 70; Plant response rating, Soybean (soybean (Glycine max); 31 g ai/ha): 80; Plant response rating, Soybean (soybean (Glycine max); 125 g ai/ha): 85; Plant response rating, Ryegrass, Italian ([5]; 8 g ai/ha): 10; Plant response rating, Ryegrass, Italian ([5]; 16 g ai/ha): 10; Plant response rating, Ryegrass, Italian ([5]; 31 g ai/ha): 15; Plant response rating, Ryegrass, Italian ([5]; 62 g ai/ha): 25; Plant response rating, Ryegrass, Italian ([5]; 125 g ai/ha): 40; Plant response rating, Sandbur ([6]; 8 g ai/ha): 10; Plant response rating, Sandbur ([6]; 16 g ai/ha): 10; Plant response rating, Sandbur ([6]; 31 g ai/ha): 20; Plant response rating, Sandbur ([6]; 62 g ai/ha): 30; Plant response rating, Sandbur ([6]; 125 g ai/ha): 35"
Cc1nn(-c2ccc(F)c(C(F)(F)F)c2)nc1Cc1ccnc(C(F)(F)F)c1 [Compound 156],15,15,20,–,10,0,0,5,15,20,65,10,90,85,95,85,90,90,95,85,"Plant response rating, Wheat, Winter [1, 16]: 0; Plant response rating, Oat, Wild [2, 16]: 5; Plant response rating, Oat, Wild [2, 12]: 10; Plant response rating, Oat, Wild [2, 13]: 25; Plant response rating, Oat, Wild [2, 14]: 90; Plant response rating, Lambsquarters [3, 16]: 25; Plant response rating, Lambsquarters [3, 12]: 30; Plant response rating, Lambsquarters [3, 13]: 85; Plant response rating, Lambsquarters [3, 14]: 100; Plant response rating, Pigweed [4, 16]: 50; Plant response rating, Pigweed [4, 12]: 85; Plant response rating, Pigweed [4, 13]: 100; Plant response rating, Pigweed [4, 14]: 100"
